{"source": "patent US20240196886A1", "about": "“ANTIBACTERIAL AND/OR ANTIVIRAL COATINGS” (CODIKOAT LTD, priority 2021, published 2024)", "key": {"murine coronavirus (MHV)": {"tested_on": "murine coronavirus (MHV)", "test": "Powdered alcohol mixed directly with MHV, L929 cell infection/TCID50 assay", "assay_type": "cell-based, Mouse Hepatitis Virus", "settings": "FIG. 6; CD encapsulated ethanol vs gamma-CD alone", "procedure": "The powders obtained in Example 1 were tested for their effectiveness in inactivating the murine coronavirus in 5 minutes using L929 cells. L929 cells at 5×10^5 cells/ml concentration in 100 μl volume in a 96 wells format were used. First, the virus stock was diluted 10 times in 1×PBS. Then 20 μl MHV (multiplicity of infection [MOI] 3.0) was mixed with 10 mg and 20 mg powdered alcohol for 5 minutes at room temperature with repetitive pipetting to maximise the interaction between the virus and powdered alcohol. To mitigate the potential side effects of the powdered alcohol on L929 cells, powder treated cell culture media (cDMEM) was prepared as a control. After recovering the virus and the control media from the mixture, treated samples (triplicates) were immediately diluted in 20 μl cDMEM, thereby bringing the final MOI to 1.0. In a 96 wells format, 8 serial dilutions (DF=5.0) were prepared per sample together with non-treated virus and cell culture media (cDMEM) as positive and negative controls, respectively. Cell infection phenotype as cell death and cytopathic effect (CPE) was observed under a benchtop light microscope (20× magnification) at 24-, 48- and 72-hours post infection (hpi) intervals (FIG. 4). TCID50/ml values per experiment were calculated at 72 hpi using Reed&Muench Calculator. […]"}, "cell lines [1]": {"tested_on": "cell lines"}, "cell lines [2]": {"tested_on": "cell lines", "test": "Toxicity on cell lines seen in the antiviral experiments", "settings": "8% PVA + glutaraldehyde coatings"}}, "data": [{"smiles": "OC[C@H]1O[C@@H]2O[C@H]3[C@H](O)[C@@H](O)[C@@H](O[C@H]4[C@H](O)[C@@H](O)[C@@H](O[C@H]5[C@H](O)[C@@H](O)[C@@H](O[C@H]6[C@H](O)[C@@H](O)[C@@H](O[C@H]7[C@H](O)[C@@H](O)[C@@H](O[C@H]8[C@H](O)[C@@H](O)[C@@H](O[C@H]9[C@H](O)[C@@H](O)[C@@H](O[C@H]1[C@H](O)[C@H]2O)O[C@@H]9CO)O[C@@H]8CO)O[C@@H]7CO)O[C@@H]6CO)O[C@@H]5CO)O[C@@H]4CO)O[C@@H]3CO", "note": "[CD alone, gamma-cyclodextrin]", "values": [{"measurement": "log reduction", "setting": "murine coronavirus (MHV)", "result": 1, "unit": "log"}]}, {"smiles": "OCl", "note": "[HOCl, hypochlorous acid]", "values": [{"measurement": "cell death and toxicity", "setting": "cell lines [1]", "result": "cell death and toxicity were observed"}]}, {"smiles": "O=CCCCC=O", "note": "[glutaraldehyde]", "values": [{"measurement": "glutaraldehyde concentration above which toxicity on cell lines was observed", "setting": "cell lines [2]", "result": "higher than 0.7%"}]}]}
